Assay type in all cases: biochemical
In assay [1] the test system is nucleotides G, C, and A (Sequence GA, Sequence CG, Sequence AG). Description: Exclusivity of the other nucleotides (G, C, and A), elongation luminescence. As to conditions: for Exclusivity of the other nucleotides (G, C, and A): CG, AG, luminescence normalized to dCTP, dGTP, dTTP as 1. The protocol:
(§1) Incorporation into nucleic acid was evaluated as follows. First, one of the above sequences was used as a target. Next, the primer was made to complementarily bind to the target. Then, an elongation experiment was carried out using the respective nucleic acid substrates for that sample. The synthesized nucleic acid substrate requires an affinity (complementary characteristics) with nucleotide T, and exclusivity of the other nucleotides (G, C, and A). The affinity with nucleotide T was evaluated using the Sequence TG and the primer. The exclusivity of the other nucleotides (G, C, and A) was evaluated using the respective Sequence GA, Sequence CG, and Sequence AG, and the primer. In addition, Sequence 5T was used for the evaluation of an ability of continuous incorporation into nucleotide T.
(§2) A sequencing method using a stepwise chemical reaction is described below. First, 35 μL of ultrapure water, 5 μL of oligo DNA (10 μM) of analysis object (target), and 5 μL of a primer (20 μM) were mixed with 5 μL of a hybridization buffer (10 mM Tris-Acetate, 20 mM Mg-Acetate, pH 7.75) (a sample solution: the final volume was 50 μL). Then, the sample solution was heated at 94° C. for 20 seconds, and reacted at a Tm temperature of the primer for 2 minutes. After that, 0.5 μL, (target: […], primer: […]) of this sample solution, 20 of a luminescence reagent which is designated in Condition 2 of Table 1, and 0.2 μL of a polymerase enzyme (the final concentration: 0.05 U/4) were mixed to prepare a reaction reagent (the final volume was 20.7 μL). To this reaction reagent was added 0.4 μL of 100 μM nucleic acid substrate (the final concentration 2 μM). When nucleic acid elongation occurs, bioluminescence derived from pyrophosphate of the elongation reaction product can be observed. The reaction has a luminescence peak a few seconds after the reaction initiation. […] This luminescence peak value is virtually proportional to the amount of generated pyrophosphate. Measurement of the peak value enables a degree of nucleic acid elongation to be estimated.
Next, with regard to the respective synthetic substrates, the exclusivity of the other nucleotides (G, C, and A) was assessed using each of Sequence GA, Sequence CG, and Sequence AG and the primer. […] In addition, a background luminescence component of the respective substrates was compensated by taking its difference into account in a manner similar to that of the preceding figures.

The subject of assay [2] is 5 consecutive nucleotides of T (Sequence 5T). Description: Ability of incorporation into consecutive nucleotides of T (Sequence 5T), three consecutive injections. As to conditions: 5 consecutive nucleotides; final concentration 4 μM; E1 = luminescence of 2nd and 3rd injections / total of 1st to 3rd. How it is done: as §1, §2
Next, by using Sequence 5T, the ability of incorporation of the respective synthetic substrates into consecutive nucleotides of T was evaluated by the following procedure. The reaction reagent was prepared by using Sequence 5T as a target oligo in the same manner as in the case of evaluation of elongation of one nucleotide as described before. In this case, a target oligo 111 and a primer 112 form a complementary strand binding as depicted in FIG. 11(1). Due to the above, when dATP is dispensed into this reaction reagent as a substrate, five molecules of the substrate are consecutively elongated per target molecule as a primer having the substrate at the 3′ end 113, thereby releasing five molecules of pyrophosphate. If the elongation for all the five nucleotides is not completed, a portion of the nucleotide T remains in a single-stranded state. Because of this, when substrate dATP is dispensed again, the portion is elongated only in the case where a portion of incomplete elongation remains. Therefore, the release of pyrophosphate can be detected as luminescence. […] In addition, substrate dCTP, which is complementary to nucleotide G 114, was subsequently dispensed twice to detect luminescence. […]

Assay [3] concerns nucleotide T (Sequence TG). Description: Affinity between synthetic substrates and nucleotide T (one-nucleotide elongation, Sequence TG, luminescence). The following applies: compared with dATPαS / other substrates. How it is done:
as §1
A sequencing method using a stepwise chemical reaction is described below. […] After that, 0.5 μL, (target: […], primer: […]) of this sample solution, 20 of a luminescence reagent which is designated in Condition 2 of Table 1, and 0.2 μL of a polymerase enzyme (the final concentration: 0.05 U/4) were mixed to prepare a reaction reagent (the final volume was 20.7 μL). […] The reaction has a luminescence peak a few seconds after the reaction initiation. […] This luminescence peak value is virtually proportional to the amount of generated pyrophosphate. […]

Assay [4] has as its target luciferase (Photinus pyralis, UniProt P08659). Description: Evaluation of substrate specificity for luciferase (luminescence on dispensing the substrate). The protocol:
In respect to the nucleic acid substrates synthesized, whether or not the substrates became a substrate for luciferase was evaluated by the following procedure. First, a luminescence reagent designated in Condition 1 of Table 1 was prepared.
Next, a reaction solution was prepared using 20 μL of this luminescence reagent, and 0.2 μL of a nucleic acid substrate of evaluation subject was injected. Then, luminescence emitted at this occasion was estimated. FIG. 6 is a graph showing the amount of luminescence when ATP, dATP, C^7dATP, and dATPαS are each dispensed as a substrate. The abscissa (C) indicates a final concentration of the compound in a reaction reagent. For example, when 0.2 μl of 1 μM substrate is dispensed, the final concentration is about 0.01 μM. An amount of luminescence (U) indicated in the ordinate was plotted by normalizing the amount of luminescence at 0.01 μM of ATP as 1. From this graph, the amount of luminescence (U) is found to be proportional to the final concentration (C). Because of this, as a substrate specificity (or substrate reactivity) for luciferase, the value (S) indicating the amount of luminescence per unit concentration is defined as described below. Substrate specificity (S)≡Amount of luminescence (U)/Final concentration (C)[μM]×0.01 (In this Definition, the Substrate Specificity of ATP is Normalized as 1).
The four points designated in the left side of the graph indicate each substrate specificity (S) of ATP, dATP, dATPαS, and C^7dATP. For a sequencing method using a stepwise chemical reaction represented by pyrosequencing, the amount of ATP generated from pyrophosphate produced in elongation of one nucleotide is equivalent to the amount of a target present in a reaction solution when all of the targets have been elongated. In addition, elongation of a plurality of nucleotides causes the amount to be multiplied by the number of the nucleotides. Generally speaking, the amount of a nucleic acid substrate which should be dispensed per reaction for sequencing requires about 100 times the amount of the target for analysis. This is because a sequenced region may sometimes contain about 10 consecutive identical nucleotides; and a reaction solution for this sequencing method has a substrate-degrading enzyme together, so that the nucleic acid elongation and substrate degradation are competed. Shortage of the substrates causes incomplete elongation, so that the following sequence analysis cannot be carried out. […] As a countermeasure against it, the substrate having about 100 times the target amount which has been generally used is preferably dispensed per reaction.
In this Example, the synthesized nucleic acid substrates were purified by liquid chromatography. However, removal of pyrophosphate that had been incorporated during the synthesis may be insufficiently carried out only by liquid chromatography-mediated purification. At that occasion, the present inventors treated the synthesized nucleic acid substrates by a pyrophosphate-degrading enzyme (PPase) to decompose the pyrophosphate. Specifically, the synthesized nucleic acid substrate was diluted in a reaction solution (100 mM Tris-Acetate, 0.5 mM EDTA, 5 mM Mg-Acetate, 1 mM DTT, pH 7.5) at a concentration of 500 μM. Then, PPase was added at 0.2 mU/μL, and the mixture was reacted at 30° C. for 30 minutes, which caused degradation of pyrophosphate in the solution. This method represents one example. […]

For assay [5], the system named is DNA Sequence S2. Description: Sequence analysis by stepwise chemical reaction (pyrogram), PPDK system, Condition 4. As to conditions: DNA Sequence S2 (3 consecutive nucleotides). The protocol:
Therefore, a sequence having 3 consecutive nucleotides of T was analyzed for comparison. Analyzed DNA Sequence S2 and a primer P3 are described below.
Of note is that Sequence P3 represents a primer sequence. This primer can complementarily bind to the underlined portion of the above DNA Sequence S2. FIGS. 16 to 20 show the results of a sequence analysis. In addition, the reagent conditions were listed together in the following Table 3.
In this experiment, an enzyme system which converts PPi into ATP has employed an enzyme system in which PPi and AMP are converted into ATP by PPDK as described in the conventional technique (Patent Literature 4). The items of the figure are identical to those of FIG. 15. At the bottom of the respective figures, the injected nucleotide types are designated. At the top, the nucleotide types which have been incorporated into a complementary DNA sequence of analysis object are designated. The substrate was injected in the order of “bases A, T, C, and G”, and 7 cycles were analyzed. As indicated in the target sequence, in this analysis, two regions (Cycle 4 and Cycle 7) having 3 consecutive nucleotides of A incorporated are present. Because of this, a difference in the ability of continuous incorporation of a nucleic acid substrate that is used as a nucleotide A can be assessed. Hereinafter, the details are described.
First, three kinds of the substrates (A3d, dATPαS, and C^7dATP) having the final concentration of 2 μM were used. The results of a sequence analysis will be described (FIGS. 16 to 20). […] At the time of dispensing A (surrounded by the circle ◯) which represented the injected nucleotide type, A3d was used. […] Accordingly, as the signal corresponding to A at the first cycle indicated, background luminescence was observed. Due to this phenomenon, the luminescence signal corresponding to nucleotide A constantly included the increased background luminescence. The symbol • in the figure denotes elongation luminescence corresponding to a nucleotide sequence of a sample. In contrast, the major luminescence without corresponding to the nucleotide sequence is represented by the symbol ∇. […] At the time of dispensing A (surrounded by the circle ◯) which represented the injected nucleotide type, dATPαS was used. The resulting pyrogram and the nucleotide sequence of a sample were compared. The symbol • in the figure denotes elongation luminescence corresponding to a nucleotide sequence of a sample. In contrast, the major luminescence without corresponding to the nucleotide sequence is represented by the symbol ∇. […] At the time of dispensing A (surrounded by the circle ◯) which represented the injected nucleotide type, C^7dATP was used. […] Accordingly, as the signal corresponding to A at the first cycle indicated, big background luminescence was observed. Due to this phenomenon, the luminescence signal corresponding to nucleotide A constantly included the increased background luminescence. The symbol x in the figure denotes just a background luminescence signal. The symbol • denotes elongation luminescence corresponding to a nucleotide sequence of a sample. However, the symbol (•) denotes inclusion of both elongation-derived luminescence and background luminescence. In contrast, the major luminescence without corresponding to the nucleotide sequence is represented by the symbol ∇.

We go through 5 compounds from patent US8853373B2, “Method and reagent for gene sequence analysis” (Hitachi, Ltd., priority 2009, dated 2014).

The structures appear in SMILES notation.

luciferase, sequence (P08659 whole entry, species assumed): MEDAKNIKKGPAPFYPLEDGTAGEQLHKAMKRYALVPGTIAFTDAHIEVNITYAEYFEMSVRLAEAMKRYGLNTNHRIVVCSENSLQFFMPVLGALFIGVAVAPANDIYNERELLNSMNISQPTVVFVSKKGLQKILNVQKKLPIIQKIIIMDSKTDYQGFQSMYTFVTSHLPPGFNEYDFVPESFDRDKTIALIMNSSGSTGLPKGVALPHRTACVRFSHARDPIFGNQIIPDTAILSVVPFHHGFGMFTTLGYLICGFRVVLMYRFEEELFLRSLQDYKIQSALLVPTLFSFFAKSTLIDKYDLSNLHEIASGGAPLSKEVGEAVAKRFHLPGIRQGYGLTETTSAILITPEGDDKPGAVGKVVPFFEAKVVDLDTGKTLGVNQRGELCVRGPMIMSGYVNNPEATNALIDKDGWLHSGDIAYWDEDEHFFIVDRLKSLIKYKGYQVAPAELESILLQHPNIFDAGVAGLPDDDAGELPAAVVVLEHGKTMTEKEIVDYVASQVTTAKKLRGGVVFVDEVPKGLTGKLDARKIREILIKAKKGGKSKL

As to `Nc1ncnc2c1c(/C=C/C(=O)NCCc1ccccn1)cn2[C@H]1CC(O)[C@@H](COP(=O)(O)OP(=O)(O)OP(=O)(O)O)O1` (some centres unmarked) [A3b], the “Exclusivity of the other nucleotides (G, C, and A)” value (“Exclusivity … (G, C, and A)” below) in assay [1] is on record as “excellent exclusivity”. Besides, the “Rate of Incomplete Elongation after the First Injection (%)” value in assay [2] was 11.2 ± 2.9%.

For the compound `Nc1ncnc2c1c(/C=C/C(=O)NCCc1ccccc1)cn2[C@H]1CC(O)[C@@H](COP(=O)(O)OP(=O)(O)OP(=O)(O)O)O1` (some centres unmarked) [A3a], the “Exclusivity … (G, C, and A)” value in assay [1] is recorded as “exhibits luminescence for all the three kinds of nucleotides”.

With `CCCNC(=O)/C=C/c1cn([C@H]2CC(O)[C@@H](COP(=O)(O)OP(=O)(O)OP(=O)(O)O)O2)c2ncnc(N)c12` (some centres unmarked) [A3c], in assay [3], the “Reaction rate of nucleic acid elongation (luminescence profile)” value was “higher reaction rate”. In addition, in assay [1], the “Exclusivity of nucleotide G” value is “a little poor exclusivity”; the “Exclusivity … (G, C, and A)” value is “generally good”.

As to `Nc1ncnc2c1ccn2[C@H]1C[C@H](O)[C@@H](COP(=O)(O)OP(=O)(O)OP(=O)(O)O)O1` [C^7dATP, 7-deaza-2′-deoxyadenosine triphosphate], the “Substrate specificity for luciferase compared with that of dATPαS” value in assay [4] (FIG. 7) was “about two orders higher”. Also, in assay [4] (amount of luminescence per unit concentration, substrate specificity of ATP normalized as 1), the “Substrate specificity (S) for luciferase, relative to that of ATP” value was “about 1/250”. The “Sequence analysis result as substitute for dATP” value in assay [5] (final concentration 2 μM, 7 cycles) was “substrate-derived background luminescence was large, so that the precise sequence identification was found to be difficult”; in assay [5] (final concentration 4 μM), “incomplete elongation for the nucleotide G at Cycle 5 was not improved”.

Consider `NCCCCCCNC(=O)CCc1cn([C@H]2CC(O)[C@@H](COP(=O)(O)OP(=O)(O)OP(=O)(O)O)O2)c2ncnc(N)c12` (some centres unmarked) [B4], for which the “Exclusivity … (G, C, and A)” value in assay [1] is “exhibits luminescence”.
